Assay results from PubChem BioAssay (NCI).
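Dose response: 5 concentrations. Exposure: 48 h. Format: 96-well plates. Endpoint: linear interpolation; highest concentration if not reached. Abbreviation: GI50, concentration required for 50% inhibition of growth. TGI marks complete inhibition of growth.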

How the values were obtained:
Assay in all cases: NCI tumour cell line growth inhibition, 48 h
CAKI-1 renal = test system: CAKI-1 renal
HL-60(TB) leukemia = test system: HL-60(TB) leukemia
K-562 leukemia = test system: K-562 leukemia
M14 melanoma = test system: M14 melanoma
MALME-3M melanoma = test system: MALME-3M melanoma
NCI-H226 lung = test system: NCI-H226 lung
NCI-H460 lung = test system: NCI-H460 lung
SK-MEL-28 melanoma = test system: SK-MEL-28 melanoma
SN12C renal = test system: SN12C renal
UACC-257 melanoma = test system: UACC-257 melanoma

`COc1cc2c3c(n(CCCCOC(=O)C(Cl)(Cl)Cl)c(=O)c2cc1OC)-c1cc2c(cc1C3=O)OCO2` was tested, and the GI50 (CAKI-1 renal) was 4.61 µM, the TGI (CAKI-1 renal) was > 100 µM and the GI50 (HL-60(TB) leukemia) was > 100000 nM. The TGI (HL-60(TB) leukemia) was > 100 µM, the GI50 (K-562 leukemia) was > 100000 nM and the TGI (K-562 leukemia) was > 100 µM. For the same molecule, the GI50 (M14 melanoma) was 24.3 µM, the TGI (M14 melanoma) was 71.9 µM and the GI50 (MALME-3M melanoma) was > 100000 nM. For the same molecule, the TGI (MALME-3M melanoma) was > 100 µM, the GI50 (NCI-H226 lung) was 67.6 µM and the TGI (NCI-H226 lung) was > 100 µM. For the same molecule, the GI50 (NCI-H460 lung) was 2410 nM, the TGI (NCI-H460 lung) was > 100 µM and the GI50 (SK-MEL-28 melanoma) was > 100 µM. For the same molecule, the TGI (SK-MEL-28 melanoma) was > 100 µM, the GI50 (SN12C renal) was 43.7 µM and the TGI (SN12C renal) was > 100 µM. For the same molecule, the GI50 (UACC-257 melanoma) was > 100000 nM and the TGI (UACC-257 melanoma) was > 100 µM.

In the case of `COc1ccc(-c2nnc(COc3ccc(NC(=O)Nc4ccc(Cl)c(C(F)(F)F)c4)cc3F)o2)cc1`, the GI50 (CAKI-1 renal) is reported as 4.07 µM, the TGI (CAKI-1 renal) is reported as 29.2 µM and the GI50 (HL-60(TB) leukemia) is reported as 2410 nM. The TGI (HL-60(TB) leukemia) was 6.12 µM, the GI50 (K-562 leukemia) was 3310 nM and the TGI (K-562 leukemia) was 53.9 µM. The GI50 (M14 melanoma) was 3.13 µM, the TGI (M14 melanoma) was 16.5 µM and the GI50 (MALME-3M melanoma) was 2720 nM. For the same molecule, the TGI (MALME-3M melanoma) was 7.63 µM, the GI50 (NCI-H226 lung) was 4.93 µM and the TGI (NCI-H226 lung) was 37.3 µM. It also gave a GI50 (NCI-H460 lung) of 2260 nM, a TGI (NCI-H460 lung) of 5.56 µM and a GI50 (SK-MEL-28 melanoma) of 5.27 µM. The TGI (SK-MEL-28 melanoma) was 54.6 µM, the GI50 (SN12C renal) was 3.8 µM and the TGI (SN12C renal) was 56 µM. For the same molecule, the GI50 (UACC-257 melanoma) was 2410 nM and the TGI (UACC-257 melanoma) was 11.2 µM.

With `C=C1C(=O)O[C@H]2[C@H]1CC/C(COC(=O)c1cc3ccccc3s1)=C\CC[C@@]1(C)O[C@@H]21` the GI50 (CAKI-1 renal) was 1.46 µM, the TGI (CAKI-1 renal) was 2.99 µM and the GI50 (HL-60(TB) leukemia) was 1890 nM. It also gave a TGI (HL-60(TB) leukemia) of 5.53 µM, a GI50 (K-562 leukemia) of 813 nM and a TGI (K-562 leukemia) of 30.5 µM. For the same molecule, the GI50 (M14 melanoma) was 1.75 µM, the TGI (M14 melanoma) was 4.24 µM and the GI50 (MALME-3M melanoma) was 1820 nM. For the same molecule, the TGI (MALME-3M melanoma) was 3.75 µM, the GI50 (NCI-H226 lung) was 2 µM and the TGI (NCI-H226 lung) was 4.63 µM. It also gave a GI50 (NCI-H460 lung) of 2200 nM, a TGI (NCI-H460 lung) of 5.55 µM and a GI50 (SK-MEL-28 melanoma) of 1.76 µM. It also gave a TGI (SK-MEL-28 melanoma) of 3.57 µM, a GI50 (SN12C renal) of 2.06 µM and a TGI (SN12C renal) of 4.61 µM. The GI50 (UACC-257 melanoma) was 1770 nM and the TGI (UACC-257 melanoma) was 3.61 µM.

With `Cc1ccc(NC(=O)NCCCOc2ccc(N3C(N)=NC(N)=NC3(C)C)cc2Cl)cc1S(=O)(=O)F` the GI50 (CAKI-1 renal) was 70 µM, the TGI (CAKI-1 renal) was > 100 µM and the GI50 (HL-60(TB) leukemia) was 775 nM. The TGI (HL-60(TB) leukemia) was > 100 µM, the GI50 (K-562 leukemia) was 677 nM and the TGI (K-562 leukemia) was > 100 µM. For the same molecule, the GI50 (M14 melanoma) was 7.81 µM, the TGI (M14 melanoma) was > 100 µM and the GI50 (MALME-3M melanoma) was 12000 nM. For the same molecule, the TGI (MALME-3M melanoma) was 81 µM, the GI50 (NCI-H226 lung) was 58.1 µM and the TGI (NCI-H226 lung) was > 100 µM. For the same molecule, the GI50 (NCI-H460 lung) was 1680 nM, the TGI (NCI-H460 lung) was > 100 µM and the GI50 (SK-MEL-28 melanoma) was 11.6 µM. For the same molecule, the TGI (SK-MEL-28 melanoma) was > 100 µM, the GI50 (UACC-257 melanoma) was 10900 nM and the TGI (UACC-257 melanoma) was > 100 µM.

For `O=c1[nH]c(=O)n(C2OC(CO)C(O)C(O)C2O)cc1F` (stereo not drawn), the TGI (CAKI-1 renal) was > 100 µM, the TGI (HL-60(TB) leukemia) was > 74.5 µM and the TGI (K-562 leukemia) was > 100 µM. The TGI (M14 melanoma) was > 100 µM, the TGI (MALME-3M melanoma) was > 100 µM and the TGI (NCI-H226 lung) was > 100 µM. For the same molecule, the TGI (NCI-H460 lung) was > 100 µM, the TGI (SK-MEL-28 melanoma) was > 100 µM and the TGI (SN12C renal) was > 100 µM. For the same molecule, the TGI (UACC-257 melanoma) was > 100 µM.

`Cc1nc(-c2ccccc2)c(-c2ccccc2)s1` gave a TGI (CAKI-1 renal) of 62.3 µM, a TGI (HL-60(TB) leukemia) of 28.5 µM and a TGI (K-562 leukemia) of 57.2 µM. It also gave a TGI (M14 melanoma) of 41.1 µM, a TGI (MALME-3M melanoma) of 46.8 µM and a TGI (NCI-H226 lung) of 42.7 µM. For the same molecule, the TGI (NCI-H460 lung) was 42.2 µM, the TGI (SK-MEL-28 melanoma) was > 100 µM and the TGI (SN12C renal) was > 100 µM. For the same molecule, the TGI (UACC-257 melanoma) was 79.9 µM.

In the case of `N#CCC(=O)NC1C2CC3CC(C2)CC1C3` (stereo not drawn), the TGI (CAKI-1 renal) is reported as 34.1 µM, the TGI (HL-60(TB) leukemia) is reported as 61.6 µM and the TGI (K-562 leukemia) is reported as > 100 µM. It also gave a TGI (M14 melanoma) of 41.6 µM, a TGI (MALME-3M melanoma) of 42.6 µM and a TGI (NCI-H226 lung) of 48.5 µM. For the same molecule, the TGI (NCI-H460 lung) was 32.3 µM, the TGI (SK-MEL-28 melanoma) was 43.3 µM and the TGI (SN12C renal) was 31.5 µM. For the same molecule, the TGI (UACC-257 melanoma) was 47.2 µM.
